Laboratory results: US6642392B1 (priority 1997, dated 2003)
Read-outs that look alike come from different tables or passages of the source.

Columns and labels:
Format in all cases: in vivo
[1] = system: Eiysiphe graminis f. sp. tritici; assay: Test A: wheat powdery mildew, preventive spray on wheat seedlings; settings: for Test A disease control rating: wheat powdery mildew; for Test A disease control rating (100 = 100% disease control, 0 = no disease control): wheat seedlings sprayed to run-off, inoculated the following day, rating relative to controls, unmarked compounds (standard test rate)
In short: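 Compounds (3% acetone, 250 ppm Trem 014) sprayed to run-off on wheat seedlings, inoculated next day with spore dust. Incubated 7 days at 20° C before disease rating, 0–100% control relative to untreated controls.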

Puccinia recondita = assay: Test B: wheat leaf rust, preventive spray on wheat seedlings; settings: for Test B disease control rating: wheat leaf rust; for Test B disease control rating (100 = 100% disease control, 0 = no disease control): wheat seedlings sprayed to run-off, inoculated the following day, rating relative to controls, unmarked compounds (standard test rate)
In short: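 Wheat seedlings were sprayed to run-off with compound (3% acetone, 250 ppm Trem 014), then inoculated with P. recondita spores the next day. They were held 24 h saturated at 20 °C, then 6 days at 20 °C. Ratings are 0–100% disease control versus controls.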

Pyricularia oryzae = settings: for Test C disease control rating: rice blast; for Test C disease control rating (100 = 100% disease control, 0 = no disease control): rice seedlings sprayed to run-off, inoculated the following day, rating relative to controls, unmarked compounds (standard test rate)
Phytophthora infestans = settings: for Test D disease control rating: tomato late blight; for Test D disease control rating (100 = 100% disease control, 0 = no disease control): tomato seedlings sprayed to run-off, inoculated the following day, rating relative to controls, unmarked compounds (standard test rate)
Botrytis cinerea = assay: Test E: gray mold, preventive spray on cucumber seedlings; settings: for Test E disease control rating: gray mold on cucumber; for Test E disease control rating (100 = 100% disease control, 0 = no disease control): cucumber seedlings sprayed to run-off, inoculated the following day, rating relative to controls, unmarked compounds (standard test rate)
In short: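 Compounds in 3% acetone were suspended with 250 ppm Trem 014 surfactant and sprayed to run-off on cucumber seedlings. B. cinerea spores were inoculated next day, then 48 h saturated humidity at 20° C and 5 days at 20° C. Disease control rated 0–100% versus controls.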

[2] = 100 = 100% disease control, 0 = no control relative to controls, unmarked entries (standard test concentration)
[3] = 100 = 100% disease control, 0 = no control, unmarked entries (standard test concentration)

| Structure (SMILES) | Test A disease control rating [1, 2] [%] | Test B disease control rating (Puccinia recondita; [3]) [%] | Test C disease control rating (Pyricularia oryzae; [3]) [%] | Test D disease control rating (Phytophthora infestans; [3]) [%] | Test E disease control rating (Botrytis cinerea; [3]) [%] | other results |
| --- | --- | --- | --- | --- | --- | --- |
| CC(COc1ccccc1C(F)(F)F)NC(=O)C(C#N)C(C)(C)C (mixture of isomers) [17a] | 85 | 67 | 30 | 16 | 0 | – |
| CC(COc1cc(Br)ccc1C#N)NC(=O)C(C#N)C(C)(C)C (mixture of isomers) [compound 44] | 0 | 0 | 94 | 89 | 0 | – |
| CC(COc1cc(C(C)(C)C)ccc1C#N)NC(=O)C(C#N)C(C)(C)C (mixture of isomers) [compound 305] | – | – | – | – | – | Test A disease control rating (100 = 100% disease control, 0 = no disease control) [1]: 0%; Test B disease control rating (100 = 100% disease control, 0 = no disease control) (Puccinia recondita): 0%; Test C disease control rating (100 = 100% disease control, 0 = no disease control) (Pyricularia oryzae): 53%; Test D disease control rating (100 = 100% disease control, 0 = no disease control) (Phytophthora infestans): 0%; Test E disease control rating (100 = 100% disease control, 0 = no disease control) (Botrytis cinerea): 0% |
| CCC1(C(=O)NC(C)CCn2c(C#N)cc(Br)c2C)C(C)C1(Cl)Cl (mixture of isomers) [compound 143] | 0 | 0 | 53 | 0 | 0 | – |
| CC(COc1cc(F)ccc1Cl)NC(=O)C(C#N)C(C)C(C)(C)C (mixture of isomers) [compound 194] | 0 | 0 | 100 | 0 | 0 | – |
| C[C@H](COc1cccc(C(F)(F)F)c1)NC(=O)C(C#N)C(C)(C)C (single isomer, unassigned) [18a] | 0 | 0 | 91 | 0 | 0 | – |
| C[C@H](COc1c(F)cc(F)cc1F)NC(=O)C(C#N)C(C)(C)C (single isomer, unassigned) [189b] | 0 | 0 | 100 | 35 | 0 | – |
| CCC1(C(=O)NCC=Cc2cc(Cl)ccc2Cl)C(C)C1(Cl)Cl (centres unmarked) [compound 163] | – | – | – | – | – | Test A disease control rating ([1]; tested at 40 ppm): 0%; Test B disease control rating (Puccinia recondita; tested at 40 ppm): 0%; Test C disease control rating (Pyricularia oryzae; tested at 40 ppm): 52%; Test D disease control rating (Phytophthora infestans; tested at 40 ppm): 42%; Test E disease control rating (Botrytis cinerea; tested at 40 ppm): 0% |
| CCC1(C(=O)NC(C)COc2cccc(C(F)(F)F)c2C#N)C(C)C1(Cl)Cl (mixture of isomers) [compound 133] | 0 | 0 | 0 | 0 | 0 | – |
| CCC1(C(=O)NC(C)COc2ccccc2F)C(C)C1(Cl)Cl (mixture of isomers) [78a] | 0 | 93 | 90 | 0 | 74 | – |
| CCC1(C(=O)NC(C)COc2c(Cl)cccc2Cl)C(C)C1(Cl)Cl (centres unmarked) [compound 114] | – | – | – | – | – | Test A disease control rating ([1]; tested at 40 ppm): 83%; Test B disease control rating (Puccinia recondita; tested at 40 ppm): 0%; Test C disease control rating (Pyricularia oryzae; tested at 40 ppm): 0%; Test D disease control rating (Phytophthora infestans; tested at 40 ppm): 0%; Test E disease control rating (Botrytis cinerea; tested at 40 ppm): 0% |
| CCC1(C(=O)NC(C)C=Cc2cc(F)ccc2F)C(C)C1(Cl)Cl (centres unmarked) [267b] | – | – | – | – | – | Test A disease control rating (100 = 100% disease control, 0 = no disease control) [1]: 92%; Test B disease control rating (100 = 100% disease control, 0 = no disease control) (Puccinia recondita): 0%; Test C disease control rating (100 = 100% disease control, 0 = no disease control) (Pyricularia oryzae): 100%; Test D disease control rating (100 = 100% disease control, 0 = no disease control) (Phytophthora infestans): 0%; Test E disease control rating (100 = 100% disease control, 0 = no disease control) (Botrytis cinerea): 55% |
| CC(COc1ccccc1F)NC(=O)C1(C)CC1(Cl)Cl (mixture of isomers) [compound 315] | – | – | – | – | – | Test A disease control rating (100 = 100% disease control, 0 = no disease control) [1]: 60%; Test B disease control rating (100 = 100% disease control, 0 = no disease control) (Puccinia recondita): 99%; Test C disease control rating (100 = 100% disease control, 0 = no disease control) (Pyricularia oryzae): 51%; Test D disease control rating (100 = 100% disease control, 0 = no disease control) (Phytophthora infestans): 16%; Test E disease control rating (100 = 100% disease control, 0 = no disease control) (Botrytis cinerea): 0% |
| CCC1(C(=O)NC(C)COc2c(Cl)cc(Cl)cc2Cl)C(C)C1(Cl)Cl (centres unmarked) [compound 118] | – | – | – | – | – | Test A disease control rating ([1]; tested at 40 ppm): 83%; Test B disease control rating (Puccinia recondita; tested at 40 ppm): 0%; Test C disease control rating (Pyricularia oryzae; tested at 40 ppm): 0%; Test D disease control rating (Phytophthora infestans; tested at 40 ppm): 0%; Test E disease control rating (Botrytis cinerea; tested at 40 ppm): 0% |
| CC(C(C#N)C(=O)NCC=Cc1ccccc1F)C(C)(C)C (mixture of isomers) [compound 75] | – | – | – | – | – | Test A disease control rating ([1]; tested at 40 ppm): 0%; Test B disease control rating (Puccinia recondita; tested at 40 ppm): 0%; Test C disease control rating (Pyricularia oryzae; tested at 40 ppm): 52%; Test D disease control rating (Phytophthora infestans; tested at 40 ppm): 19%; Test E disease control rating (Botrytis cinerea; tested at 40 ppm): 0% |
| CC(C)(C)C(C#N)C(=O)NC/C=C/c1ccc(Cl)cc1Cl (racemic) [compound 274] | – | – | – | – | – | Test A disease control rating (100 = 100% disease control, 0 = no disease control) [1]: 61%; Test B disease control rating (100 = 100% disease control, 0 = no disease control) (Puccinia recondita): 28%; Test C disease control rating (100 = 100% disease control, 0 = no disease control) (Pyricularia oryzae): 74%; Test D disease control rating (100 = 100% disease control, 0 = no disease control) (Phytophthora infestans): 23%; Test E disease control rating (100 = 100% disease control, 0 = no disease control) (Botrytis cinerea): 58% |
| C=CCc1ccccc1OCC(C)NC(=O)C(C#N)C(C)(C)C (mixture of isomers) [25a] | 95 | 28 | 32 | 0 | 0 | – |
| C[C@H](COc1cccc(F)c1F)NC(=O)C(C#N)C(C)(C)C (single isomer, unassigned) [26a] | 38 | 28 | 97 | 51 | 0 | – |
| C[C@H](COc1c(Cl)ccc(Cl)c1Cl)NC(=O)C(C#N)C(C)(C)C (single isomer, unassigned) [171a] | 0 | 0 | 86 | 0 | 0 | – |
| CCC1(C(=O)NC(C)COc2cccc(CF)c2)C(C)C1(Cl)Cl (mixture of isomers) [compound 93] | – | – | – | – | – | Test A disease control rating ([1]; tested at 40 ppm): 57%; Test B disease control rating (Puccinia recondita; tested at 40 ppm): 0%; Test C disease control rating (Pyricularia oryzae; tested at 40 ppm): 85%; Test D disease control rating (Phytophthora infestans; tested at 40 ppm): 19%; Test E disease control rating (Botrytis cinerea; tested at 40 ppm): 0% |
| CC(COc1ccccc1C(F)(F)F)NC(=O)C1(C)CC1(Cl)Cl (mixture of isomers) [compound 312] | – | – | – | – | – | Test A disease control rating (100 = 100% disease control, 0 = no disease control) [1]: 0%; Test B disease control rating (100 = 100% disease control, 0 = no disease control) (Puccinia recondita): 0%; Test C disease control rating (100 = 100% disease control, 0 = no disease control) (Pyricularia oryzae): 0%; Test D disease control rating (100 = 100% disease control, 0 = no disease control) (Phytophthora infestans): 82%; Test E disease control rating (100 = 100% disease control, 0 = no disease control) (Botrytis cinerea): 0% |
| C=CC(C)(C)C(C#N)C(=O)N[C@H](C)COc1cc(Cl)ccc1Cl (single isomer, unassigned) [215b] | – | – | – | – | – | Test A disease control rating (100 = 100% disease control, 0 = no disease control) [1]: 0%; Test B disease control rating (100 = 100% disease control, 0 = no disease control) (Puccinia recondita): 28%; Test C disease control rating (100 = 100% disease control, 0 = no disease control) (Pyricularia oryzae): 99%; Test D disease control rating (100 = 100% disease control, 0 = no disease control) (Phytophthora infestans): 76%; Test E disease control rating (100 = 100% disease control, 0 = no disease control) (Botrytis cinerea): 83% |
